Tests used:
[1] = test system: SARS-CoV-2-induced IL-1β P17 release in Calu-3 cells; assay type: cell-based
SARS-CoV-2-trVLPs = assay type: cell-based, SARS-CoV-2 (Wuhan-Hu-1 strain); settings: ratio of CC50 to antiviral EC50, Caco-2-N cells
[2] = test system: secretion of the matured form of IL-1β (P17) in SFTSV-infected THP-1 macrophages; experiment: cells; assay type: cell-based; settings: for inhibition at 10 µM: Homo sapiens, THP-1, 48 h, read-out: inhibition rate of IL-1β (P17) secretion
[3] = target: SARS-CoV-2 polymerase complex (RdRp; nsp12, nsp7-nsp8) (Severe acute respiratory syndrome coronavirus 2, UniProt P0DTD1); experiment: biochemical; settings: RdRp inhibition IC50, in vitro polymerase activity assay
[4] = target: PDE4 (catalytic domain of human PDE4D) (Homo sapiens, UniProt Q08499); experiment: PDE4 inhibition assay; assay type: biochemical
Sequence of PDE4 (catalytic domain of human PDE4D) (Q08499 388-715): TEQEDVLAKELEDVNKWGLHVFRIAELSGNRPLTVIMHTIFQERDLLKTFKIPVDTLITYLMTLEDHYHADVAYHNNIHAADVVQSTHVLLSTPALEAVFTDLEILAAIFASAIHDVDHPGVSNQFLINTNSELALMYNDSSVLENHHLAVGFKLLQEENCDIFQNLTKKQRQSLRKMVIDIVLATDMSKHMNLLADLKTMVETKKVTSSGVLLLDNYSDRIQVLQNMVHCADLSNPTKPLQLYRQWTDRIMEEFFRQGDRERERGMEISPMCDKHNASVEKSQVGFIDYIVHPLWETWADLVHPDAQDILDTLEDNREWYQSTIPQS

Row | SMILES | reduction of SARS-CoV-2-induced IL-1β P17 release, dose dependence [1] | selectivity index (SI = CC50/EC50) (SARS-CoV-2-trVLPs) | anti-inflammation activity (inhibition of P17 secretion), dose dependence [2] | inhibition at 10 µM [2] | IC50 [3] | IC50 [4]
1 | COc1cc(O)ccc1/C=C/C(=O)c1ccc(O)cc1 [Echinatin] | dose-dependent effects | > 5.0 | dose-dependent manner | > 90% | – | –
2 | Cc1cc(O)c2c(c1)C(=O)c1cc(O)cc(O)c1C2=O [Emodin] | – | > 5.0 | – | – | – | –
3 | CC(C)=CCc1cc(-c2coc3cc(O)cc(O)c3c2=O)cc(O)c1O [Glycyrrhisoflavone] | dose-dependent effects | > 5.0 | dose-dependent manner | > 90% | 28.9 µM | 1.29 µM
4 | C=CCc1ccc(O)c(-c2cc(CC=C)ccc2O)c1 [Magnolol] | – | > 5.0 | – | – | – | –
5 | O=c1c(O)c(-c2ccc(O)c(O)c2)oc2cc(O)cc(O)c12 [Quercetin] | – | > 5.0 | – | – | – | 17.4 µM
